We go through 15 compounds from the SangsterLogP compilation.

Take `OC[C@H]1O[C@@H](n2cnc3ccccc32)C[C@@H]1O`: the logP (commonly a log measure of how a compound divides between an organic and an aqueous phase) turned out to be 0.69. In the case of `CCn1cnc2c(N)nc(Cl)nc21`, the logP was found to be 1.16.

In turn, `OCC1OC(n2cnc3c(NC4CCCCC4)nc(Cl)nc32)CC1O` (stereo not given) returned a logP of 3. `CNc1nc(Cl)nc2c1ncn2[C@H]1C[C@H](O)[C@@H](CO)O1` yielded a logP of 0.91. The figure for `OC[C@H]1O[C@@H](n2nnc3ccccc32)C[C@@H]1O` is 0.55; for `Nc1nc(Cl)nc2c1nc(Br)n2C1CC(O)C(CO)O1` (stereo not given) it is 0.9.

The compound `OCC1OC(n2cnc3c(NCc4ccccc4)nc(Cl)nc32)CC1O` (stereo not given) gave a logP of 2.48. Take `Nc1ncnc2c1ncn2[C@H]1C[C@H](O)[C@@H](CO)O1`: the logP was -0.68. To `Nc1nc(Cl)nc2c1ccn2[C@H]1C[C@H](O)[C@@H](CO)O1` belongs 0.38; to `Nc1ncnc2ncn([C@H]3C[C@H](O)[C@@H](CO)O3)c12`, -0.01. On to `OC[C@H]1O[C@@H](n2nc3ccccc3n2)C[C@@H]1O`, for which the logP came to 1.06.

Compound `Nc1nc(Cl)nc2nc[nH]c12` registered a logP of 0.35. `Nc1nc(Cl)nc2c1cnn2[C@H]1C[C@H](O)[C@@H](CO)O1` showed a logP of 0.38. In the case of `Nc1nc(Br)nc2c1ncn2C1CC(O)C(CO)O1` (stereo not given), the logP stood at 0.41. In turn, `OCCNc1nc(Cl)nc2c1ncn2[C@H]1C[C@@H](O)[C@@H](CO)O1` came in with a logP of 0.47.
